Experimental data: patent US9303012B2, “Pyridine-2-amides useful as CB2 agonists” (Hoffmann-La Roche Inc., priority 2012, dated 2016)

Tests used:
[1] = target: human CB1 receptors (Homo sapiens (Human), UniProt P21554); assay: functional cAMP assay, CHO cells expressing human CB1 receptors; format: cell-based
Experimental: (§1) CHO cells expressing human CB1 or CB2 receptors are seeded 17-24 hours prior to the experiment 50.000 cells per well in a black 96 well plate with flat clear bottom (Corning Costar #3904) in DMEM (Invitrogen No. 31331), 1×HT supplement, with 10% fetal calf serum and incubated at 5% CO2 and 37° C. in a humidified incubator. The growth medium was exchanged with Krebs Ringer Bicarbonate buffer with 1 mM IBMX and incubated at 30° C. for 30 min. Compounds were added to a final assay volume of 100 μl and incubated for 30 min at 30° C. Using the cAMP-Nano-TRF detection kit the assay (Roche Diagnostics) was stopped by the addition of 50 μl lysis reagent (Tris, NaCl, 1.5% Triton X100, 2.5% NP40, 10% NaN3) and 50 μl detection solutions (20 μM mAb Alexa700-cAMP 1:1, and 48 μM Ruthenium-2-AHA-cAMP) and shaken for 2 h at room temperature. The time-resolved energy transfer is measured by a TRF reader (Evotec Technologies GmbH), equipped with a ND:YAG laser as excitation source. The plate is measured twice with the excitation at 355 nm and at the emission with a delay of 100 ns and a gate of 100 ns, total exposure time 10 s at 730 (bandwidth 30 nm) or 645 nm (bandwidth 75 nm), respectively. The FRET signal is calculated as follows: FRET=T730-Alexa730-P(T645-B645) with P=Ru730-B730/Ru645-B645, where T730 is the test well measured at 730 nM, T645 is the test well measured at 645 nm, B730 and B645 are the buffer controls at 730 nm and 645 nm, respectively. cAMP content is determined from the function of a standard curve spanning from 10 μM to 0.13 nM cAMP.
(§2) EC50 values were determined using Activity Base analysis (ID Business Solution, Limited). The EC50 values for a wide range of cannabinoid agonists generated from this assay were in agreement with the values published in the scientific literature.

[2] = target: human CB2 receptors (Homo sapiens (Human), UniProt P34972); assay: functional cAMP assay, CHO cells expressing human CB2 receptors; format: cell-based
human CB2 receptors, sequence (P34972 whole entry): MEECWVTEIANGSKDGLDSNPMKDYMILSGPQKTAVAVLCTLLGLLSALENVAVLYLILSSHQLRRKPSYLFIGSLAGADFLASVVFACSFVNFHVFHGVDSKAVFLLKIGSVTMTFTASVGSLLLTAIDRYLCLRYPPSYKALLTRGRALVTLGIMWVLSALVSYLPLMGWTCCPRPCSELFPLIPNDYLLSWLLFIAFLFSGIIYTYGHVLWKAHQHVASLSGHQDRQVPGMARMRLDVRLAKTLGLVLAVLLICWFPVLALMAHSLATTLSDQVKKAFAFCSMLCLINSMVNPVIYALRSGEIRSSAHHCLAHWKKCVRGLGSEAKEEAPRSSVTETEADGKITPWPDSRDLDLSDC
Experimental: as §1, §2

human CB1 receptors, sequence (P21554 whole entry): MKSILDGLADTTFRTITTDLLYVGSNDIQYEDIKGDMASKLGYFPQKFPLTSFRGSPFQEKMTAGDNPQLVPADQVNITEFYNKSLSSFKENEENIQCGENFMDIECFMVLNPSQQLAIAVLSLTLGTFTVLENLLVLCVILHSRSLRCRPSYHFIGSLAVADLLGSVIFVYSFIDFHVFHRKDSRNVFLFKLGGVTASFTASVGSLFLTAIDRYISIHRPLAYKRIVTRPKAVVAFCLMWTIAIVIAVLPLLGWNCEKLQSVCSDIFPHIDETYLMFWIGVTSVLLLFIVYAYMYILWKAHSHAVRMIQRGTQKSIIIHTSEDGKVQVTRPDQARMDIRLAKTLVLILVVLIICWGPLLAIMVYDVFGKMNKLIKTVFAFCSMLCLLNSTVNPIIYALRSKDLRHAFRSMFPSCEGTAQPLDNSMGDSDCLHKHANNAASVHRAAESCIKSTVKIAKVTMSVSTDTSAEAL

Row | SMILES | EC50 [1] | EC50 [2]
1 | CC1(C)C[C@H](C(N)=O)N(C(=O)c2ccc(N3CC(F)(F)C3)c(OCC3CC3)n2)C1 [Example 77, (+)-1-[6-Cyclopropylmethoxy-5-(3,3-difluoro-azetidin-1-yl)-pyridine-2-carbonyl]-4,4-dimethyl-pyrrolidine-2-carboxylic acid amide] | > 10000 nM | 194 nM
2 | CCOC(=O)C1C2CN(C(=O)c3ccc(N4CC(F)(F)C4)c(OCC4CC4)n3)CC21 (centres unmarked) [Example 107, 3-[6-Cyclopropylmethoxy-5-(3,3-difluoro-azetidin-1-yl)-pyridine-2-carbonyl]-3-aza-bicyclo[3.1.0]hexane-6-carboxylic acid ethyl ester] | > 10000 nM | 757 nM
3 | O=C(c1ccc(N2CC(F)(F)C2)c(OCC2CC2)n1)N1CCC2(CCCO2)C1 (centres unmarked) [Example 100, [6-Cyclopropylmethoxy-5-(3,3-difluoro-azetidin-1-yl)-pyridin-2-yl]-(1-oxa-7-aza-spiro[4.4]non-7-yl)-methanone] | > 10000 nM | 20.8 nM
4 | CC(C)(C)N(CC(=O)O)C(=O)c1ccc(N2CC(F)(F)C2)c(OCC2CC2)n1 [Example 24, {tert-Butyl-[6-cyclopropylmethoxy-5-(3,3-difluoro-azetidin-1-yl)-pyridine-2-carbonyl]-amino}-acetic acid] | > 10000 nM | 340 nM
5 | O=C(c1ccc(N2CC(F)(F)C2)c(OCC2CC2)n1)N1CC2(CCCO2)C1 [Example 99, [6-Cyclopropylmethoxy-5-(3,3-difluoro-azetidin-1-yl)-pyridin-2-yl]-(5-oxa-2-aza-spiro[3.4]oct-2-yl)-methanone] | > 10000 nM | 305 nM
6 | CC1CN(C(=O)c2ccc(N3CC(F)(F)C3)c(OCC3CC3)n2)CC(C)O1 (centres unmarked) [Example 119, [6-Cyclopropylmethoxy-5-(3,3-difluoro-azetidin-1-yl)-pyridin-2-yl]-(2,6-dimethyl-morpholin-4-yl)-methanone] | > 10000 nM | 599 nM
7 | NC(=O)[C@@H]1CS(=O)(=O)CN1C(=O)c1ccc(C2CC2)c(OCC2CC2)n1 [Example 115, (−)-3-(5-Cyclopropyl-6-cyclopropylmethoxy-pyridine-2-carbonyl)-1,1-dioxo-1λ^6-thiazolidine-4-carboxylic acid amide] | > 10000 nM | 7.2 nM
8 | CCN(C(=O)c1ccc(N2CC(F)(F)C2)c(OCC2CC2)n1)C1(C(F)(F)F)CC1 [Example 21, 6-Cyclopropylmethoxy-5-(3,3-difluoro-azetidin-1-yl)-pyridine-2-carboxylic acid ethyl-(1-trifluoromethyl-cyclopropyl)-amide] | > 10000 nM | 2.8 nM
9 | CC1(C)COCN1C(=O)c1ccc(C2CC2)c(Cc2ccc(F)cc2)n1 [Example 44, [5-Cyclopropyl-6-(4-fluoro-benzyl)-pyridin-2-yl]-(4,4-dimethyl-oxazolidin-3-yl)-methanone] | 408 nM | 3.1 nM
10 | CC1(C)CC(O)CCN1C(=O)c1ccc(N2CC(F)(F)C2)c(OCC2CC2)n1 (centres unmarked) [Example 66, [6-Cyclopropylmethoxy-5-(3,3-difluoro-azetidin-1-yl)-pyridin-2-yl]-(4-hydroxy-2,2-dimethyl-piperidin-1-yl)-methanone] | > 10000 nM | 5.6 nM
11 | O=C(c1ccc(N2CC(F)(F)C2)c(OCC2CC2)n1)N1C[C@H]2COC[C@H]2C1 [Example 146, [(3aR,6aS)-1,3,3a,4,6,6a-Hexahydrofuro[3,4-c]pyrrol-5-yl]-[6-(cyclopropylmethoxy)-5-(3,3-difluoroazetidin-1-yl)pyridin-2-yl]methanone] | > 10000 nM | 167 nM
12 | CC1(C)CCCN1C(=O)c1ccc(C2CC2)c(OCC(F)(F)C(F)(F)F)n1 [Example 84, [5-Cyclopropyl-6-(2,2,3,3,3-pentafluoro-propoxy)-pyridin-2-yl]-(2,2-dimethyl-pyrrolidin-1-yl)-methanone] | > 10000 nM | 18.9 nM
13 | O=C(c1ccc(N2CC(F)(F)C2)c(OCC2CC2)n1)N(Cc1ccccc1)C1(C(F)(F)F)CC1 [Example 22, 6-Cyclopropylmethoxy-5-(3,3-difluoro-azetidin-1-yl)-pyridine-2-carboxylic acid benzyl-(1-trifluoromethyl-cyclopropyl)-amide] | > 10000 nM | 25 nM
14 | CC1(C)CCN(C(=O)c2ccc(C3CC3)c(OCC3CCCO3)n2)CC1 (centres unmarked) [Example 43, [5-Cyclopropyl-6-(tetrahydro-furan-2-ylmethoxy)-pyridin-2-yl]-(4,4-dimethyl-piperidin-1-yl)-methanone] | > 10000 nM | 34.9 nM
15 | NC(=O)[C@H]1N(C(=O)c2ccc(N3CC(F)(F)C3)c(OCC3CC3)n2)CCC12CC2 [Example 152, (+)-5-[6-(Cyclopropylmethoxy)-5-(3,3-difluoroazetidin-1-yl)pyridine-2-carbonyl]-5-azaspiro[2.4]heptane-4-carboxamide] | > 10000 nM | 338 nM
16 | CCC1(CC)C(=O)NCCN1C(=O)c1ccc(N2CC(F)(F)C2)c(OCC2CC2)n1 [Example 29, 4-[6-Cyclopropylmethoxy-5-(3,3-difluoro-azetidin-1-yl)-pyridine-2-carbonyl]-3,3-diethyl-piperazin-2-one] | > 10000 nM | 414 nM
17 | CCN(CCOC)C(=O)c1ccc(N2CC(F)(F)C2)c(OCC2CC2)n1 [Example 39, 6-Cyclopropylmethoxy-5-(3,3-difluoro-azetidin-1-yl)-pyridine-2-carboxylic acid ethyl-(2-methoxy-ethyl)-amide] | > 10000 nM | 142 nM
18 | NC(=O)C1CSCN1C(=O)c1ccc(N2CC(F)(F)C2)c(OCC2CC2)n1 (centres unmarked) [Example 122, 3-[6-Cyclopropylmethoxy-5-(3,3-difluoro-azetidin-1-yl)-pyridine-2-carbonyl]-thiazolidine-4-carboxylic acid amide] | > 10000 nM | 50 nM
19 | O=C(c1ccc(N2CC(F)(F)C2)c(OCC2CC2)n1)N1CCC2(CC(O)CO2)C1 (centres unmarked) [Example 82, [6-Cyclopropylmethoxy-5-(3,3-difluoro-azetidin-1-yl)-pyridin-2-yl]-(3-hydroxy-1-oxa-7-aza-spiro[4.4]non-7-yl)-methanone] | > 10000 nM | 356 nM
20 | CN(C(=O)c1ccc(N2CC(F)(F)C2)c(OCC2CC2)n1)C(C)(C)C [Example 1, 6-Cyclopropylmethoxy-5-(3,3-difluoro-azetidin-1-yl)-pyridine-2-carboxylic acid tert-butyl-methyl-amide] | > 10000 nM | 4.6 nM
21 | CC1(C)COCN1C(=O)c1ccc(N2CC(F)(F)C2)c(OCC2CC2)n1 [Example 14, [6-Cyclopropylmethoxy-5-(3,3-difluoro-azetidin-1-yl)-pyridin-2-yl]-(4,4-dimethyl-oxazolidin-3-yl)-methanone] | > 10000 nM | 7.3 nM
22 | O=C(c1ccc(N2CC(F)(F)C2)c(OCC2CC2)n1)N1C[C@@H]2C[C@H]1CN2Cc1ccccc1 [Example 63, ((1S,4S)-5-Benzyl-2,5-diaza-bicyclo[2.2.1]hept-2-yl)-[6-cyclopropylmethoxy-5-(3,3-difluoro-azetidin-1-yl)-pyridin-2-yl]-methanone] | > 10000 nM | 198 nM
